From patent US7358267B2, “Bis-aryl thiazole derivatives” (Amgen Inc., priority 2001, dated 2008)

How the values were obtained:
UCP3 = UCP3 RNA induction in rat L6 cells (QPCR); assay type: cell-based; parameters: key to UCP3 RNA induction, Induction at 10 μM: ++ denotes greater than 10-fold induction; + denotes 10-fold or less induction; — denotes no induction
Method: Table 1 provides QPCR data (ABI 7700 Sequence Detection System) for exemplary compounds of formula I evaluated for UCP3 RNA induction in L6 cells from rats. The assay is described in Example 14.4, below.
Rat UCP3 (L6 cells) QPCR Protocol
1. (Day1) Plate 300,000 L6 cells per well (24 well plate) in Minimum Essential Medium-Alpha Medium with 2% FBS and Antibiotic/Antimycotic Solution added. Incubate for 2 days and change to fresh medium (Day3). Incubate 1 more day.
2. (Day 4) Add compound at desired concentration. Incubate for 18-20 h. 2 wells per compound. 4-wells of DMSO controls per plate.
3. (Day 5) Prepare RNA from cells: • (1) Aspirate media and lyse cells directly on plate by adding 500 μL of Trizol Reagent (Gibco BRL) to each well and passing the lysate several times through a pipette. Transfer lysate to eppendorf tubes (combining the lysate from identical compound treatments). • (2) Add 200 μL of chloroform to the 1 mL of lysate. Vortex to mix and incubate at room temp. for 2-3 min. Spin samples in a microfuge at 12,000 rpm for 15 min. at 4° C. • (3) Transfer the aqueous phase to a fresh tube. Precipitate the RNA from the aqueous phase by adding 500 μL of isopropanol and mixing well. Incubate at −20° C. for at least 15 min. Pellet the RNA by spinning at 12,000 rpm for 10 min. at 4° C. • (4) Remove the supernatant and wash the RNA pellet with 500 μL of 75% ethanol. Spin at 10,000 rpm for 5 min. at 4° C. • (5) Remove the supernatant and allow pellet to air dry briefly. Dissolve RNA in 15 μL of RNase-free water. Store at −80° C. Electrophorese some RNA to check quality.
4. QPCR (50 μL reactions in 96 well MicroAmp Optical Plate): TaqMan Gold RT-PCR Reagents (PE catalog #N808-0232): OD RNA and dilute to 5 ng/μL in RNase-free water. All samples run in duplicate with UCP3 and m18S probe/primers
Add 40 μL of Reaction Mix to 10 μL of diluted RNA (50 ng total) on QPCR plate PCR Cycling Parameters • 48° C. 30 min. • 95° C. 10 min. • 40 cycles: 95° C. 15 sec. • 58° C. 1.5 min. QPCR Primers/Probes

RXRα = molecular target: T1, RXRα (Homo sapiens, UniProt P19793); assay: RXRα induction in HEK 293 cells (transient transfection, luciferase reporter); assay type: cell-based
T1 construct: expressed in transfected cells; host or cells: HEK 293 cells
T1 sequence (P19793 1-462): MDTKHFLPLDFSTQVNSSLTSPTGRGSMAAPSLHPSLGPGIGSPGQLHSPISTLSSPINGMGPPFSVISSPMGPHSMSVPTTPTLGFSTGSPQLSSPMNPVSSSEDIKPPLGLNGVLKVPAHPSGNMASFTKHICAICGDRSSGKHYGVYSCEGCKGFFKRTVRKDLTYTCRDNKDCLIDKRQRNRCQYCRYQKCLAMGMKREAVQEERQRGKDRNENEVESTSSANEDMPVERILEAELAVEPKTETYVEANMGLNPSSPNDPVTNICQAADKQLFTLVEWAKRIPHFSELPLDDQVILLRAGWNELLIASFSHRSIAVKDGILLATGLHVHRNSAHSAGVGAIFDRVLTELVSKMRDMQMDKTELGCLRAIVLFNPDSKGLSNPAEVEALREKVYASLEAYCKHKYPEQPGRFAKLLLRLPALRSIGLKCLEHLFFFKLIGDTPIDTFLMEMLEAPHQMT
Method: Table 2 provides QPCR data (ABI 7700 Sequence Detection System) for exemplary compounds of formula I evaluated for RXR induction in HEK 293 cells, following a general protocol, briefly described below. See Naeger et al. (1999) J. Biol. Chem. 274:1875-1878 for a related cell-based assay.
DNA constructs containing a luciferase reporter plasmid and another plasmid which contained an activation domain (e.g., RXRα) were transiently transfected into HEK 293 cells. The cells were treated with the compounds and luciferase activity was measured using a luminometer. Fold induction was determined by comparing the luciferase activity of treated cells to the activity of untreated cells.

melting point [°C]	RXRα RNA induction at 1 μM (RXRα)	RXRα RNA induction at 3 μM (RXRα)	RXRα RNA induction at 10 μM (RXRα)	Compound	fold induction at 10 µM (UCP3)	UCP3 RNA induction, Induction at 10 μM (UCP3)
273 to 274	+ (+ denotes 5-fold or less induction)	+ (+ denotes 5-fold or less induction)	+ (+ denotes 5-fold or less induction)	Cc1c(C(=O)O)cnn1-c1nc(-c2ccc(C(F)(F)F)cc2)cs1 [Compound 2, 1-[4-(4-(Trifluoromethyl)phenyl)thiazol-2-yl]-5-methylpyrazole-4-carboxylic acid]	> 10	
278 to 278.6	+ (+ denotes 5-fold or less induction)	+ (+ denotes 5-fold or less induction)	+ (+ denotes 5-fold or less induction)	Cc1c(C(=O)O)cnn1-c1nc(-c2ccc(Cl)c(Cl)c2)cs1 [Compound 3, 1-[4-(3,4-Dichlorophenyl)thiazol-2-yl]-5-methylpyrazole-4-carboxylic acid]	> 10	
258 to 258.3				Cc1c(C(=O)O)cnn1-c1nc(-c2cccc(Cl)c2)cs1 [Compound 4, 1-[4-(3-Chlorophenyl)thiazol-2-yl]-5-methylpyrazole-4-carboxylic acid]	> 10	
	+ (+ denotes 5-fold or less induction)	+ (+ denotes 5-fold or less induction)	+ (+ denotes 5-fold or less induction)	O=C(O)c1cnn(-c2nc(-c3cccc(C(F)(F)F)c3)cs2)c1C(F)(F)F [Compound 5, 1-[4-(3-(Trifluoromethyl)phenyl)thiazol-2-yl]-5-trifluoromethylpyrazole-4-carboxylic acid]	> 10	
229.1 to 229.6				O=C(O)c1cnn(-c2nc(-c3cccc(C(F)(F)F)c3)cs2)c1 [Compound 6, 1-[4-(3-(Trifluoromethyl)phenyl)thiazol-2-yl]pyrazole-4-carboxylic acid]	> 10	
215.5 to 216.5	+ (+ denotes 5-fold or less induction)	+ (+ denotes 5-fold or less induction)	+ (+ denotes 5-fold or less induction)	Cc1c(C(=O)O)cnn1-c1nc(-c2ccccc2C(F)(F)F)cs1 [Compound 7, 1-[4-(2-(Trifluoromethyl)phenyl)thiazol-2-yl]-5-methylpyrazole-4-carboxylic acid]	> 10	
	+ (+ denotes 5-fold or less induction)	+ (+ denotes 5-fold or less induction)	+ (+ denotes 5-fold or less induction)	CCOC(=O)c1cnn(-c2nc(-c3cccc([N+](=O)[O-])c3)cs2)c1C [Compound 8, Ethyl 1-[4-(3-nitrophenyl)thiazol-2-yl]-5-methylpyrazole-4-carboxylate]		—
273.1 to 274.3	+ (+ denotes 5-fold or less induction)	+ (+ denotes 5-fold or less induction)	+ (+ denotes 5-fold or less induction)	Cc1c(C(=O)O)cnn1-c1nc(-c2ccc3ccccc3c2)cs1 [Compound 9, 1-[4-(2-Naphthyl)thiazol-2-yl]-5-methylpyrazole-4-carboxylic acid]		—
138 to 138.5				CCOC(=O)c1cnn(-c2nc(-c3cccc(C(F)(F)F)c3)cs2)c1C [Compound 11, Ethyl 1-[4-(3-(trifluoromethyl)phenyl)thiazol-2-yl]-5-methylpyrazole-4-carboxylate]	≤ 10	
				O=C(O)c1cnn(-c2nc(-c3cccc([N+](=O)[O-])c3)cs2)c1C(F)(F)F [Compound 12, 1-[4-(3-Nitrophenyl)thiazol-2-yl]-5-trifluoromethylpyrazole-4-carboxylic acid]		—
204 to 204.7	+ (+ denotes 5-fold or less induction)	+ (+ denotes 5-fold or less induction)	+ (+ denotes 5-fold or less induction)	O=C(O)c1cnn(-c2nc(-c3cc(C(F)(F)F)cc(C(F)(F)F)c3)cs2)c1C(F)(F)F [Compound 13, 1-[4-(3,5-Bis(trifluoromethyl)phenyl)thiazol-2-yl]-5-(trifluoromethyl)pyrazole-4-carboxylic acid]	≤ 10	
	+ (+ denotes 5-fold or less induction)	+ (+ denotes 5-fold or less induction)	+ (+ denotes 5-fold or less induction)	O=C(O)c1cnn(-c2nc(-c3cccc(C(F)(F)F)c3)cs2)c1C(=O)O [Compound 16]		
	+ (+ denotes 5-fold or less induction)	+ (+ denotes 5-fold or less induction)	+ (+ denotes 5-fold or less induction)	Cc1c(C(=O)O)cnn1-c1nc(-c2ccccc2)cs1 [Compound 17]		
	+ (+ denotes 5-fold or less induction)	+ (+ denotes 5-fold or less induction)	+ (+ denotes 5-fold or less induction)	Cc1c(C(=O)O)cnn1-c1nc(-c2ccc(-c3ccccc3)cc2)cs1 [Compound 19]		
				Cc1c(C(=O)NCCC(=O)O)cnn1-c1nc(-c2cccc(C(F)(F)F)c2)cs1 [Compound 20]	≤ 10	

Compound	melting point [°C]	RXRα RNA induction at 1 μM (RXRα)	RXRα RNA induction at 3 μM (RXRα)	RXRα RNA induction at 10 μM (RXRα)	fold induction at 10 µM (UCP3)	UCP3 RNA induction, Induction at 10 μM (UCP3)
Cc1c(C(=O)O)cnn1-c1nc(-c2cc(C(F)(F)F)cc(C(F)(F)F)c2)cs1 [Compound 10, 1-[4-(3,5-Bis(trifluoromethyl)phenyl)thiazol-2-yl]-5-methylpyrazole-4-carboxylic acid]	260.9 to 261.4	+ (+ denotes 5-fold or less induction)	++ (++ denotes greater than 5-fold induction)	+ (+ denotes 5-fold or less induction)	≤ 10	
COc1cccc(-c2csc(-n3ncc(C(=O)O)c3C)n2)c1 [Compound 14]		++ (++ denotes greater than 5-fold induction)	++ (++ denotes greater than 5-fold induction)	++ (++ denotes greater than 5-fold induction)		
CCc1c(C(=O)O)cnn1-c1nc(-c2cccc(C(F)(F)F)c2)cs1 [Compound 15]		+ (+ denotes 5-fold or less induction)	++ (++ denotes greater than 5-fold induction)	+ (+ denotes 5-fold or less induction)		
Cc1c(C(=O)O)cnn1-c1nc(-c2ccc(Cl)cc2)cs1 [Compound 18]		+ (+ denotes 5-fold or less induction)	++ (++ denotes greater than 5-fold induction)	+ (+ denotes 5-fold or less induction)		
